Test results taken from US20230234993A1, “COMPOSITION FOR PREVENTING OR TREATING NEUROLOGICAL DISEASES RELATED TO COPPER METABOLISM, COMPRISING MULTI-COPPER OXIDASE PEPTIDE” (NATIONAL MARINE BIODIVERSITY INSTITUTE OF KOREA, priority 2020, published 2023).
Where no end group is shown, it is not given here.

Assays:
Format in all cases: in vivo
[1] = tested on: wild-type zebrafish fertilized eggs; test: Developmental toxicity analysis of multi-copper oxidase-derived peptides (number of surviving subjects, viability)
Protocol: The developmental toxicity of CP001 (SEQ ID NO: 3) and CP002 (SEQ ID NO: 4), which were multi-copper oxidase-derived peptides, was analyzed. Specifically, fertilized eggs were obtained by mating wild-type zebrafish. After the obtained fertilized eggs were maintained in an incubator for 24 hours, 7 subjects were dispensed into each well of a 24-well plate. The dispensed subjects were treated with CP001 and CP002 at various concentrations (10, 50, and 100 μM). After treatment with the CP001 and CP002, the number of surviving subjects at 2, 6, 22, and 36 hours was confirmed using a microscope, and the viability was calculated based on the results. The control group of the experiment was treated with 0.1% DMSO. The result of confirming the number of surviving subjects was illustrated in FIG. 5A and the calculation result of the viability was illustrated in FIG. 5B.
The experiment was performed in the same method as described above, and the treatment concentrations of CP001 and CP002 were as follows. • CP001: 1 μM, 4 μM • CP002: 5 μM, 10 μM

[2] = tested on: zebrafish embryos exposed to copper; test: Hatching rate under copper overexposure conditions
Protocol: Through hatching rate examination, the activities of CP002 and CP002S were analyzed in zebrafish embryos exposed to copper. Specifically, the development process of fertilized eggs obtained by mating male and female wild-type zebrafish was safely maintained in an incubator. At 24 hours after fertilization, normally grown embryos were dispensed into a 24-well plate by 13 subjects and maintained under copper overexposure conditions. The dispensed subjects were treated with CP002 (5, 10 μM), CP002S (5, 10 μM), DPA (5, 10 μM), or TETA (5, 10 μM). From 48 hours to 52, 56, 60, 72, and 80 hours after fertilization (24 hours after treatment) when hatching started, the number of hatched subjects in each group was examined. A negative control group in the experiment was a 0.1% DMSO treated group (normal group) and a copper overexposed group (4 μM CuSO4), and a positive control group was a CP002 treated group; a DPA (penicillamine/D-Penicillamine) treated group; and a TETA (trientine/Trientine) treated group. The DPA and TETA were drugs that have been used as therapeutic agents for Wilson's disease and copper overexposure in the related art. The results of examining the hatching rate were illustrated in FIG. 9.

[3] = tested on: myelinated cells in the nervous system of zebrafish embryos under copper overexposure; test: Myelination defect of cranial ganglia in copper overexposure nervous system model (fluorescence microscopy); conditions: 6 days of drug treatment; for subjects expressing the fluorescent protein (cranial ganglia): with copper, concentration not given
Protocol: The development process of fertilized eggs obtained by mating male and female wild-type zebrafish was safely maintained in an incubator (28.5° C.). At 24 hours after fertilization, normally grown embryos were dispensed into a 24-well plate by 10 subjects and maintained under copper overexposure conditions. To examine the developmental defects of myelinated cells in the nervous system due to copper overexposure and a therapeutic effect of a multi-copper oxidase peptide, CP002S (10 μM) was treated. After 6 days of drug treatment, the subjects were anesthetized with tricaine and placed in 3% methylcellulose. The myelination defect of cranial ganglia (Cg) was observed through fluorescence microscopy, and fluorescent proteins were divided into a normal and a defect according to an expression level. A negative control group in the experiment was a 0.1% DMSO treated group (normal group) and a copper overexposed group, and a positive control group was a DPA (penicillamine/D-Penicillamine) treated group; and a TETA (trientine/Trientine) treated group. The results observed with a fluorescence microscope were illustrated in FIG. 10A, and the results of analyzing the therapeutic effect based on the fluorescence microscope observation results were illustrated in FIG. 10B.

[4] = tested on: wild-type zebrafish embryos; test: Abnormal blood deposition in tissue by hematological staining after ceruloplasmin mRNA injection; conditions: 180 pg or 350 pg mRNA injected into embryos at 1 to 4 cell stages; 48 hours after injection; compared to normal group
Protocol: Specifically, the ceruloplasmin gene (SEQ ID NO: 1) derived from Octopus minor obtained in Example 1 was treated with restriction enzymes Cla 1 and Xho 1, and inserted into a pCS2+ expression vector. A restriction enzyme Sac II was treated to the pCS2+ expression vector into which the ceruloplasmin gene was inserted, to prepare linear DNA. An mRNA using the linear DNA as a template was synthesized by an in vitro transcription (Sp6, Invitrogen) method.
After obtaining fertilized eggs by mating wild-type zebrafish, embryos at 1 to 4 cell stages were arranged on an injection plate. After loading the synthesized ceruloplasmin mRNA in a microglass tube with a microloder tip, a predetermined concentration (180 pg or 350 pg) thereof was injected into the embryo using a microinjector, a picopump, and a microscope. Subjects injected with the ceruloplasmin mRNA were cultured in an incubator, and after 48 hours of injection, dark-treated with a hematological staining reagent (o-dianisidine (0.6 mg/ml), 0.01 M sodium acetate (pH 4.5), 0.65% H2O2, 40% ethanol) for 30 minutes, and then washed. After washing, a fixing solution (4% paraformaldehyde) was treated to the subject injected with the ceruloplasmin mRNA, and reacted for at least 1 hour. The subjects injected with the immobilized ceruloplasmin mRNA were placed in 80% glycerol/20% PBS, and photographed under a stereoscopic microscope. […]

[5] = tested on: zebrafish embryos under copper overexposure conditions; test: Cardiotoxicity (heart rate) in copper-overexposed nervous system model
Protocol: The development process of fertilized eggs obtained by mating male and female wild-type zebrafish was safely maintained in an incubator (28.5° C.). At 24 hours after fertilization, normally grown embryos were dispensed into a 24-well plate by 20 subjects and maintained under copper overexposure conditions. On 4.5 days after treatment (5.5 days after fertilization), 7 subjects per group were randomly selected, 3% methylcellulose was put in a hole slide glass, and the heart of each subject was located on the hole slide glass to be observed with the naked eye through a stereoscopic microscope lens and observed under a microscope. The heart rate was measured together with the movement of the atria and the ventricles for 20 seconds for each subject in each group to be converted to a heart rate per minute and the average heart rate for each group was compared through a PRISM (Bonfferroni's Multiple Comparison Test, One-way ANOVA) program. In addition, the heart rate inhibition rate was calculated as follows using an average heart rate of the control group. Heart rate inhibition rate=[(average heart rate by group−average heart rate in control group)×100]/average heart rate in control group […] The results of measuring the heart rate in the copper overexposed model animal were illustrated in FIG. 11A, and the heart rate inhibition rate calculated based on the heart rate measurement results was illustrated in FIG. 11B.

[6] = 10 μM, 72 hours after fertilization
[7] = 10 μM, 80 hours after fertilization
[8] = 5 μM, 48 hours after fertilization
[9] = 5 μM, 52 hours after fertilization
[10] = 10 μM, 48 hours after fertilization
[11] = 10 μM, 52 hours after fertilization
[12] = copper overexposure, 5.5 days after fertilization, concentration not given

Molecule	hatching rate [2, 6]	hatching rate [2, 7]	subjects expressing the fluorescent protein (cranial ganglia) [3]	hatching rate [2, 8]	hatching rate [2, 9]	hatching rate [2, 10]	hatching rate [2, 11]	heart rate [5, 12]	further results
GSWLVKCHVHDHYVGGMETLL [CP001]	–	–	–	–	–	–	–	–	developmental toxicity ([1]; 5 μM): developmental toxicity was not confirmed; developmental toxicity (number of surviving subjects and viability) ([1]; 1 or 4 μM): there was no developmental toxicity; developmental toxicity ([1]; 10 to 100 μM, surviving subjects at 2, 6, 22, 36 hours): developmental toxicity was confirmed
CC(C)(S)[C@@H](N)C(=O)O [DPA, D-Penicillamine]	36.3%	81.8%	100%	–	–	–	–	–	hatching rate ([2]; 5 μM, 80 hours after fertilization): 45.4%
ceruloplasmin mRNA: mRNA synthesized by in vitro transcription from the Octopus minor ceruloplasmin gene (SEQ ID NO: 1)	–	–	–	–	–	–	–	–	blood deposition in tissue (o-dianisidine hematological staining) [4]: abnormal blood deposition in tissue was observed
NCCNCCNCCN [TETA, Trientine]	92.3%	100%	80%	12.5%	75%	30.7%	84.6%	148 beats per minute	hatching rate ([2]; 5 μM, 56 hours after fertilization): 100%; heart rate increase compared to the control group (heart rate inhibition rate) [5, 12]: 3.5%
HCHVDDHIIGGM [CP002S]	–	–	–	10%	20%	80%	100%	–	hatching rate ([2]; 5 μM, 72 hours after fertilization): 100%; heart rate ([5]; 10 μM, copper overexposure, 5.5 days after fertilization): 135 beats per minute; subjects with fluorescent protein expression in the cranial ganglia ([3]; 10 μM with copper): all subjects
GKWLLHCHVDDHIIGGMSAIY [CP002]	–	–	–	–	–	–	–	132 beats per minute	heart rate decrease compared to the normal group (heart rate inhibition rate) ([5]; zebrafish, in vivo): 7.7%; developmental toxicity ([1]; 10 μM, surviving subjects at 2, 6, 22, 36 hours): developmental toxicity was not shown; developmental toxicity (number of surviving subjects and viability) ([1]; 5 or 10 μM): there was no developmental toxicity; developmental toxicity ([1]; 50 to 100 μM, surviving subjects at 2, 6, 22, 36 hours): developmental toxicity was confirmed
